Laboratory results reported in article PMC2974656, “Selective killing of human immunodeficiency virus infected cells by non-nucleoside reverse transcriptase inhibitor-induced activation of HIV protease” (Retrovirology, 2010).

How the values were obtained:
[1] = tested on: intracellular Gag processing by HIV PR; assay type: cell-based, HIV-1; details: 293T cells, 44 h post transfection
Protocol: In previous studies, high concentrations of NNRTI (5 μM) were required to observe NNRTI mediated activation of intracellular HIV PR activity. […]. Towards this end, we developed a biochemical assay for gel independent quantitation of intracellular Gag processing by HIV PR in the context of a virus producing cell. We had previously shown that additional protein domains, consisting of small epitope tags or even the 27 kDa green fluorescent protein (EGFP), can be inserted between the MA and CA domains of the Gag and Gag-Pol polyproteins without affecting polyprotein production or processing by HIV PR [36]. Based on this, we designed a HIV reporter construct which contained a small N-terminal fragment ('alpha peptide') of Escherichia coli beta-galactosidase (β-Gal), flanked by two HIV PR recognition sites, between the MA and CA coding sequences of Gag (Figure 1A). […] This so called alpha complementation principle can be exploited for use in mammalian cells and has been employed for the establishment of various cell based biochemical assay systems. We reasoned that embedding of the small alpha peptide within the multi-domain polyproteins Gag or Gag-Pol, respectively, should impair its productive association with the omega subunit, while proteolytic release of the alpha peptide from the polyprotein by PR would allow the formation of enzymatically active β-Gal. This should allow us to monitor intracellular Gag and Gag-Pol processing through increased β-Gal activity.
Reconstituted β-Gal activity in cell lysates was measured by cleavage of the chromogenic substrate CPRG [42] as described in Methods.
The activity of β-Gal in cell lysates from transfected 293T cells was measured by enzymatic cleavage of the chromogenic β-Gal substrate chlorphenolred-β-D-galactopyranoside (CPRG, Roche; [42]). At 44 h post transfection, cells were briefly rinsed with PBS and suspended in reporter gene assay lysis buffer (Roche, 600 μl per 6-well dish) supplemented with a protease inhibitor mix (Roche). Cell suspensions were incubated for 10 min at room temperature and cell debris was subsequently removed by brief centrifugation. Five μl of supernatant were diluted in 96-well plates with 95 μl CPRG reaction buffer (50 mM potassium phosphate, pH 7.5, 1 mM MgCl2) and pre-warmed for 5 min to 37°C. 100 μl of pre-warmed reaction mix (100 μM CPRG in CPRG reaction buffer supplemented with protease inhibitor cocktail and 40 μM β-mercaptoethanol) were added and β-Gal mediated cleavage of CPRG was monitored by recording absorption at 592 nm every 2 min for 20 min at 37°C using a TECAN Safire multi-well reader. OD592 values were plotted over time and relative reaction rates (OD592/min) were determined from the initial linear velocities.

[2] = tested on: MT4-CMV-EGFP control cells; assay: Cytotoxicity on uninfected control cells, EGFP fluorescence per well; assay type: cell-based
Protocol: (§1) The cytotoxicity of inhibitors was determined in parallel on MT4-CMV-EGFP control cells and on MT4-LTR-EGFP-IIIB virus producing cells, respectively.

[3] = tested on: MT4-LTR-EGFP-IIIB HIV-1 producing cells; assay: in vitro; assay type: cell-based
Protocol: as §1

[4] = tested on: Gag processing in MT-4-IIIB cells; assay: Immunoblot of Gag processing in chronically infected MT-4 cells; assay type: cell-based, HIV-1; details: 1 μM, day 2 post addition
HIV-1AGFP infected PBMC = assay: Killing of HIV-1 infected PBMC, proportion of GFP expressing cells by flow cytometry; assay type: cell-based, human; details: 1 μM NNRTI, added day 2 post infection with AMD-3100, 5 days
Protocol: PBMC isolated from healthy blood donors were activated and infected with a replication competent HIV-1 derivative which carries a gfp gene in the nef locus [49]. The co-receptor antagonist AMD-3100 was added at day 2 post infection to prevent further viral spread.
(A) PBMC prepared from buffy coats of healthy blood donors were infected with HIV-1AGFP. At day 2 post infection, 100 ng/ml AMD-3100 was added to all samples to prevent further infection. […] After further incubation for 5 days, cells were harvested and analyzed for the proportion of infected GFP expressing cells by flow cytometry. […] P-values were calculated using a two-tailed unpaired t-test (GraphPad Prism). Values were normalized to the respective solvent control. (B) CD4 positive cells isolated from PBMC were infected with HXB2D-EGFP. […] After further incubation for 3 days, cells were harvested and analyzed for the proportion of infected cells by flow cytometry. […] Asterisks: non-infected controls.
PBMC pooled from two donors each were used for infection.

293T cells = assay: Microscopically detectable impairment of cell growth of transfected 293T cells; assay type: cell-based; details: high NNRTI concentrations (5 μM and above)
Protocol: At 44 h post transfection, cell lysates were analyzed for β-Gal activity.

NS(=O)(=O)c1ccc(NC(=O)CSc2nnc(Br)n2-c2ccc(C3CC3)c3ccccc23)c(Cl)c1 [VRX-480773]
Concentration showing strong β-Gal activity enhancement [1]: ~ 250 nM | CC50 [2]: 5.82 ± 1.44 µM | CC50 on uninfected control cells relative to virus producing cells [2]: ~ 10 fold | CC50 ([3]; 4 days, no DRV, mean ± SD, tested up to 10 μM, read-out: Cytotoxicity on MT4-LTR-EGFP-IIIB HIV-1 producing cells CC50): 0.68 ± 0.34 µM | Cytotoxicity on MT4-LTR-EGFP-IIIB cells, in words ([3]; summary of Table 1): submicromolar range | NNRTI mediated enhancement of Gag processing in virus producing cells [4]: decreased ratio of Gag to intermediate and fully mature processing products | Infected primary cells (PBMC) as compared with the control (HIV-1AGFP infected PBMC): significant reduction | Impairment of cell growth with decrease in β-Gal activity indicative of cytotoxic effects (293T cells): most pronounced
